Read-outs that look alike come from different tables or passages of the source.
Key:
[1] = molecular target: T1, pooled human liver microsome (HLM) preparations (Homo sapiens, UniProt Q02928); assay: Inhibition of MONACRA demethylation in pooled HLM preparations; format: biochemical; details: 150 µM MONACRA
T1 sequence (Q02928 5-519): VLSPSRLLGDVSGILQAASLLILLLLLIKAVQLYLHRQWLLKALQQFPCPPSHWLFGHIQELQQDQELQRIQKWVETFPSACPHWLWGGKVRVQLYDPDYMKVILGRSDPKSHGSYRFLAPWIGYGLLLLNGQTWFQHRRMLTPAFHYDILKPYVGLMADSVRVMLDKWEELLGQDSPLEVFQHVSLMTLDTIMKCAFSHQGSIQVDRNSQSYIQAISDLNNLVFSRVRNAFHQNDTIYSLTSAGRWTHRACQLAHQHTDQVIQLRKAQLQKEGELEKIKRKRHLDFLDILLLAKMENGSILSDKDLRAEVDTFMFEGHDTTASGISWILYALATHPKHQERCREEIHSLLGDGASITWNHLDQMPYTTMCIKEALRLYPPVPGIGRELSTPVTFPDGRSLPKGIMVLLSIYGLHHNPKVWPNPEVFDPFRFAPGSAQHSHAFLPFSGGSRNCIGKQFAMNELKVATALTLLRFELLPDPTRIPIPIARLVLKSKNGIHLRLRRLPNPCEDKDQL
Excerpt: (§1) To probe the role of CYP4A11 and CYP1A2 in MONACRA metabolism by HLM, we employed inhibitory analysis with the use of epalrestat as a specific inhibitor of CYP4A11 [22] and fluvoxamine as a CYP1A2 inhibitor [37]. We explored the effect of the inhibitors on the activity of recombinant CYP1A2 and CYP4A11, as well as the activity of six different preparations of HLM (preparation X347 was not available at the time of the study).
(§2) Figure 12: Effect of epalrestat (A) and fluvoxamine (B) on 3-(6-methoxynaphthalen-2-yl)acrylic acid (MONACRA) demethylation by recombinant CYP1A2 (black) and CYP4A11 (red) and three pooled human liver microsome (HLM) preparations: X263 (green), DNJ (blue), and WGP (brown). Solid lines represent the approximation of the datasets by eqn 1 (in the instances of pure inhibition) or a combination of two hyperbolic equations (in the cases of activation or combined inhibition and activation). All experiments were carried out at 150 µM MONACRA concentration. The datasets shown in the graphs represent the averages of the results of four (fluvoxamine) or two (epalrestat) individual experiments.
This study used preparations of pooled HLMs from 50, 150, or 200 donors (mixed gender). The preparations CDN, DNJ, and WGP were INVITROCYP 150-Donor Human Liver Microsomes obtained from BioIVT Corporation (Westbury, NY). Lot EGW is INVITROCYP M-Class 50-Donor HLM procured from the same company. Lots 1,910,096 and 1,210,347 were XTreme 200 Mixed Gender HLM (200 donors) purchased from XenoTech LLC (Kansas City, KS), currently a part of BioIVT. Lot 2,110,263 corresponds to mixed gender HLM from 50 donors from the same company. These lots are referred to herein as X096, X347, and X263, respectively. The supplier of the HLM preparations used in our studies, BioIVT Corporation, has declared to adhere to the regulations of the Department of Health and Human Services for the protection of human subjects (45 CFR §46.116 and §46.117) and Good Clinical Practice, (ICH E6) in obtaining the samples of human tissues used for producing the preparations of human subcellular fractions available from these companies.
(§3) Inhibition of MONACRA metabolism by epalrestat and fluvoxamine was studied using the high-throughput assay described above. The substrate concentration was kept constant at 150 µM. Each column of the well plate comprised eight wells with different concentrations of inhibitor complemented with two wells with no inhibitor added (100% activity samples) and two wells with no inhibitor and no NADPH added (‘blank’ samples). […] The fractional inhibition at each inhibitor concentration was determined from the ratio of the reaction rate in the presence of an inhibitor to the rate observed at no inhibitor added. The resulting dependence of the fractional inhibition on the inhibitor concentration was fitted to a four-parameter logistic equation (Hill equation):
(§4) (1) FI=v0−vi/v0=Amax[I]^N/IC50+[I]^N
In this equation, F I and vi are the fractional inhibition and the reaction velocity observed at inhibitor concentration [I], v0 is the reaction rate at no inhibitor added, and A max is the maximal amplitude of inhibition. IC 50 is the concentration of inhibitor at which the inhibition reaches 50% of its maximal amplitude (A max), and N is the Hill coefficient.

CYP4A11 = molecular target: T2, CYP4A11 (Homo sapiens, UniProt Q02928); assay: Inhibition of MONACRA demethylation by recombinant CYP4A11; format: biochemical; parameters: purchased Gentest (Huntsville, AL), now a part of Discovery Life Sciences lot 2402280; host or cells: insect cells, recombinant baculovirus; details: recombinant CYP4A11 Supersomes; 150 µM MONACRA
T2 sequence (Q02928 5-519): T1 sequence (Q02928 5-519)
Excerpt: as §1, §2
as §3, with “The” for “The fractional inhibition at each inhibitor concentration was determined from the ratio of the reaction rate in the presence of an inhibitor to the rate observed at no inhibitor added. The”
as §4
IC 50 is the concentration of inhibitor at which the inhibition reaches 50% of its maximal amplitude (A max), and N is the Hill coefficient.

[2] = substrate: COc1ccc2cc(C=CC(=O)O)ccc2c1; assay: MONACRA demethylation by recombinant CYP4A11 in Supersomes, high-throughput fluorimetric assay; format: biochemical, human; details: other: CYP4A11 Supersomes, Michaelis–Menten fit, 20 min at 30°C, ± = confidence interval P=0.05
Description: Based on these observations, we developed a high-throughput automated assay applicable for studying SSPs of MONACRA metabolism by microsomal P450 enzymes. In this procedure, the incubation mixtures containing an NADPH-generating system and various substrate concentrations are placed in a multiwell plate and preincubated at 30°C in a thermostated shaker. The reaction is started by adding microsomal suspension to the final concentration of 0.3–1 mg/ml of microsomal protein or 0.02–0.1 µM of recombinant P450 enzymes in Supersomes. Following the incubation for 20 min at 30°C, the reaction is quenched by adding trichloroacetic acid (final concentration […]). After supplementing the wells with Na-glycine buffer (pH 10.4, final concentration 2.1 M), the plates are subjected to scanning the fluorescence spectra with excitation at 375 nm. This assay, which is described in detail in Materials and Methods, allows reliable detection of the concentrations of HONACRA as low as 0.1 µM.
We used the high-throughput activity assay described above to probe MONACRA metabolism by 16 human microsomal P450 enzymes, namely CYP1A2, CYP2A6, CYP2B6, CYP2C8, CYP2C9, CYP2C19, CYP2D6, CYP2E1, CYP2J2, CYP3A4, CYP3A5, CYP4A11, CYP4F2, CYP4F3A, CYP4F3B, and CYP4F12. […]

[3] = all studied HLM samples (six preparations)

With `CC(/C=C1\SC(=S)N(CC(=O)O)C1=O)=C\c1ccccc1` [epalrestat] the “Inhibition (amplitude)” value ([1]; HLM sample CDN) was 99.7±0.6%, the IC50 ([1]; HLM sample CDN, unit not given (µM)) was 1.48 ± 0.21 µM and the “Inhibition (amplitude)” value ([1]; HLM sample DNJ) was 93.0±2.3%. For the same molecule, the IC50 ([1]; HLM sample DNJ, unit not given (µM)) was 2.02 ± 1.7 µM, the “Inhibition (amplitude)” value ([1]; HLM sample EGW) was 99.8±0.4% and the IC50 ([1]; HLM sample EGW, unit not given (µM)) was 2.15 ± 0.52 µM. The “Inhibition (amplitude)” value ([1]; HLM sample WGP) was 97.1±5.7%, the IC50 ([1]; HLM sample WGP, unit not given (µM)) was 2.14 ± 0.94 µM and the “Inhibition (amplitude)” value ([1]; HLM sample X096) was 93.9±0.7%. The IC50 ([1]; HLM sample X096, unit not given (µM)) was 5.36 ± 0.13 µM, the “Inhibition (amplitude)” value ([1]; HLM sample X263) was 100.0% and the IC50 ([1]; HLM sample X263, unit not given (µM)) was 5.09 ± 1.04 µM. For the same molecule, the IC50 [1, 3] was 3 ± 1.4 µM, the amplitude of inhibition [1, 3] was 97.2±2.5 and the IC50 (CYP4A11) was 1300 nM. The “effect on MONACRA demethylation by CYP4A11” value (CYP4A11) was “complete inhibition”.

In the case of `COCCCC/C(=N\OCCN)c1ccc(C(F)(F)F)cc1` [fluvoxamine], the amplitude of inhibition ([1]; HLM preparation DNJ) is reported as 69%, the IC50 ([1]; HLM preparation DNJ, read-out: IC 50) is reported as 14 µM and the “effect on MONACRA metabolism in HLM” value ([1]; HLM preparations CDN, WGP and X096) is reported as “combination of an inhibitory effect at lower concentrations with an activation that manifests itself as the concentration increases”. The “effect on MONACRA metabolism in HLM” value ([1]; HLM preparations EGW and X263) was “activation similar to that observed in CYP4A11 Supersomes” and the “effect on MONACRA demethylation by CYP4A11” value (CYP4A11) was “pronounced activation”.

B1: CYP4A11 (Homo sapiens) (protein)
chain: T1 sequence (Q02928 5-519)
notes: purchased Gentest (Huntsville, AL), now a part of Discovery Life Sciences lot 2402280; host or cells: insect cells, recombinant baculovirus
With B1 the Km [2] was 189 ± 37 µM and the kcat [2] was 1.12 ± 0.3 s⁻¹.
